From PubChem BioAssay AID248 (DTP/NCI, 2004)
Several values for one entry are separate records, joined by “and”; a condition that tells them apart may be missing. Equal values may be shown once. Inconclusive results and toxic doses are left out.

Tested on: L1210 leukemia ip in BDF1 mice, survival T/C
Test: NCI In Vivo Anticancer Drug Screen. Data for tumor model L1210 Leukemia (intraperitoneal) in B6D2F1 (BDF1) mice
Conditions: endpoint: mean survival time, higher = longer survival
Summary of the method: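 Value reflects the ratio of survival in compound-treated mice to survival in vehicle-treated controls, with both groups carrying the same transplanted tumor.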

[1] = dose: 25.0 mg/kg/injection, schedule: Q01DX009 (ip), vehicle: Klucel (hydroxypropylcellulose) (HPC)
[2] = dose: 50.0 mg/kg/injection, schedule: Q01DX009 (ip), vehicle: Klucel (hydroxypropylcellulose) (HPC)
[3] = dose: 50.0 mg/kg/injection, schedule: Q01DX009 (ip), vehicle: saline with Tween-80
[4] = dose: 100.0 mg/kg/injection, schedule: Q01DX009 (ip), vehicle: saline with Tween-80
[5] = dose: 100.0 mg/kg/injection, schedule: Q04DX003 (ip), vehicle: saline with Tween-80
[6] = dose: 200.0 mg/kg/injection, schedule: Q04DX003 (ip), vehicle: saline with Tween-80
[7] = dose: 400.0 mg/kg/injection, schedule: Q04DX003 (ip), vehicle: saline with Tween-80
[8] = dose: 100.0 mg/kg/injection, schedule: Q01DX009 (ip), vehicle: Klucel (hydroxypropylcellulose) (HPC)
[9] = dose: 12.5 mg/kg/injection, schedule: Q01DX009 (ip), vehicle: saline
[10] = dose: 25.0 mg/kg/injection, schedule: Q01DX009 (ip), vehicle: saline
[11] = dose: 25.0 mg/kg/injection, schedule: Q04DX003 (ip), vehicle: saline
[12] = dose: 50.0 mg/kg/injection, schedule: Q04DX003 (ip), vehicle: saline
[13] = dose: 6.25 mg/kg/injection, schedule: Q04DX003 (ip), vehicle: saline
[14] = dose: 12.5 mg/kg/injection, schedule: Q04DX003 (ip), vehicle: saline
[15] = dose: 5.0 mg/kg/injection, schedule: Q01DX001 (ip), vehicle: saline
[16] = dose: 10.0 mg/kg/injection, schedule: Q01DX001 (ip), vehicle: saline
[17] = dose: 20.0 mg/kg/injection, schedule: Q01DX001 (ip), vehicle: saline
[18] = dose: 200.0 mg/kg/injection, schedule: Q01DX001 (ip), vehicle: saline

O=C1C=CC(=O)C(c2ccccc2)=C1
T/C (dose: 6.0 mg/kg/injection, schedule: Q04DX003 (ip), vehicle: Klucel (hydroxypropylcellulose) (HPC)): 95 % of control | T/C (dose: 12.0 mg/kg/injection, schedule: Q01DX001 (ip), vehicle: saline): 104 % of control | T/C (dose: 12.0 mg/kg/injection, schedule: Q01DX009 (ip), vehicle: Klucel (hydroxypropylcellulose) (HPC)): 90 % of control | T/C (dose: 12.0 mg/kg/injection, schedule: Q04DX003 (ip), vehicle: Klucel (hydroxypropylcellulose) (HPC)): 98 % of control | T/C (dose: 25.0 mg/kg/injection, schedule: Q01DX001 (ip), vehicle: saline): 100 % of control | T/C [1]: 100 % of control | T/C (dose: 25.0 mg/kg/injection, schedule: Q04DX003 (ip), vehicle: Klucel (hydroxypropylcellulose) (HPC)): 98 % of control | T/C [2]: 100 % of control

ClCCCCOCCl
T/C [3]: 101 % of control | T/C [4]: 97 % of control | T/C (dose: 200.0 mg/kg/injection, schedule: Q01DX009 (ip), vehicle: saline with Tween-80): 87 % of control

CC(C)OC(=O)C1(N)CCCC1
T/C (dose: 25.0 mg/kg/injection, schedule: Q01DX Z (ip), vehicle: carboxymethylcellulose (CMC)): 105 % of control | T/C (dose: 30.0 mg/kg/injection, schedule: Q01DX Z (ip), vehicle: saline): 113 % of control | T/C (dose: 40.0 mg/kg/injection, schedule: Q01DX Z (ip), vehicle: other): 119 % of control | T/C (dose: 45.0 mg/kg/injection, schedule: Q01DX Z (ip), vehicle: saline): 118 % of control | T/C (dose: 50.0 mg/kg/injection, schedule: Q01DX Z (ip), vehicle: carboxymethylcellulose (CMC)): 122 % of control | T/C (dose: 150.0 mg/kg/injection, schedule: Q01DX Z (ip), vehicle: saline): 89 % of control | T/C (dose: 200.0 mg/kg/injection, schedule: Q01DX Z (ip), vehicle: carboxymethylcellulose (CMC)): 88 % of control

CN(C)/C=N/NC(=O)C(O)c1ccccc1 (stereo not drawn)
T/C [5]: 116 % of control | T/C [6]: 103 % of control | T/C [7]: 111 % of control

C=CCOc1ccccc1C(C)=O
T/C [5]: 97 % of control | T/C [6]: 97 % of control | T/C [7]: 89 % of control

COc1ccc([N+](=O)[O-])cc1NC(=O)Nc1ccc(Nc2ccccc2)cc1
T/C [2]: 97 % of control | T/C [8]: 94 % of control | T/C (dose: 200.0 mg/kg/injection, schedule: Q01DX009 (ip), vehicle: Klucel (hydroxypropylcellulose) (HPC)): 90 % of control

OC(c1ccc(C2CC2)cc1)(c1ccc(C2CC2)cc1)c1ccc(C2CC2)cc1
T/C [5]: 104 % of control | T/C [6]: 102 % of control | T/C [7]: 91 % of control

O=C(c1ccccc1)C(Oc1ccccc1)c1ccccc1 (stereo not drawn)
T/C (dose: 100.0 mg/kg/injection, schedule: Q04DX002 (ip), vehicle: other): 111 % of control | T/C (dose: 200.0 mg/kg/injection, schedule: Q04DX002 (ip), vehicle: other): 107 % of control | T/C (dose: 400.0 mg/kg/injection, schedule: Q04DX002 (ip), vehicle: other): 100 % of control

CCCC(=O)NC1CCC(CC2CCCCC2)CC1 (stereo not drawn)
T/C (dose: 50.0 mg/kg/injection, schedule: Q01DX009 (ip), vehicle: other): 92 % of control | T/C (dose: 100.0 mg/kg/injection, schedule: Q01DX009 (ip), vehicle: other): 106 % of control | T/C (dose: 100.0 mg/kg/injection, schedule: Q04DX003 (ip), vehicle: other): 100 % of control | T/C (dose: 200.0 mg/kg/injection, schedule: Q01DX009 (ip), vehicle: other): 98 % of control | T/C (dose: 200.0 mg/kg/injection, schedule: Q04DX003 (ip), vehicle: other): 100 % of control

NC1Cc2ccccc2C1
T/C [9]: 98 % of control | T/C [10]: 110 % of control and 93 % of control | T/C [11]: 104 % of control | T/C (dose: 50.0 mg/kg/injection, schedule: Q01DX009 (ip), vehicle: saline): 92 % of control and 95 % of control | T/C [12]: 109 % of control | T/C (dose: 100.0 mg/kg/injection, schedule: Q01DX009 (ip), vehicle: saline): 106 % of control and 92 % of control | T/C (dose: 100.0 mg/kg/injection, schedule: Q04DX003 (ip), vehicle: saline): 96 % of control | T/C (dose: 200.0 mg/kg/injection, schedule: Q04DX003 (ip), vehicle: saline): 92 % of control

CCCCn1ccnc1C
T/C [13]: 113 % of control and 90 % of control | T/C [14]: 93 % of control and 107 % of control | T/C [11]: 113 % of control and 265 % of control and 89 % of control | T/C [12]: 106 % of control and 289 % of control

CN=C(N)NCCCCCCCCNC(N)=NC
T/C [15]: 95 % of control | T/C [16]: 101 % of control | T/C [17]: 101 % of control

CCNc1ccc(/C=C2\C=Cc3ccccc32)cc1
T/C [1]: 96 % of control | T/C [2]: 102 % of control | T/C (dose: 75.0 mg/kg/injection, schedule: Q01DX001 (ip), vehicle: olive oil, sesame oil, peanut oil): 103 % of control | T/C [8]: 96 % of control | T/C (dose: 150.0 mg/kg/injection, schedule: Q01DX001 (ip), vehicle: olive oil, sesame oil, peanut oil): 108 % of control

COc1ccc(/C=C(\C#N)c2ccc([N+](=O)[O-])cc2)cc1[N+](=O)[O-]
T/C (dose: 100.0 mg/kg/injection, schedule: Q04DX002 (ip), vehicle: Klucel (hydroxypropylcellulose) (HPC)): 105 % of control | T/C (dose: 200.0 mg/kg/injection, schedule: Q04DX002 (ip), vehicle: Klucel (hydroxypropylcellulose) (HPC)): 105 % of control | T/C (dose: 400.0 mg/kg/injection, schedule: Q04DX002 (ip), vehicle: Klucel (hydroxypropylcellulose) (HPC)): 102 % of control

COc1cccn(C/C=C(\C)CCC=C(C)C)c1=O
T/C (dose: 25.0 mg/kg/injection, schedule: Q01DX009 (ip), vehicle: saline with Tween-80): 104 % of control | T/C (dose: 25.0 mg/kg/injection, schedule: Q04DX003 (ip), vehicle: saline with Tween-80): 99 % of control | T/C [3]: 94 % of control | T/C (dose: 50.0 mg/kg/injection, schedule: Q04DX003 (ip), vehicle: saline with Tween-80): 97 % of control | T/C [4]: 90 % of control | T/C [5]: 91 % of control

CC(=O)c1ccc2[nH]c(C)cc(=O)c2c1
T/C (dose: 100.0 mg/kg/injection, schedule: Q01DX001 (ip), vehicle: saline): 94 % of control | T/C [18]: 107 % of control | T/C (dose: 400.0 mg/kg/injection, schedule: Q01DX001 (ip), vehicle: saline): 96 % of control

Clc1nc(I)c(Cl)c(C(Cl)(Cl)Cl)n1
T/C (dose: 12.5 mg/kg/injection, schedule: Q01DX001 (ip), vehicle: Klucel (hydroxypropylcellulose) (HPC)): 89 % of control | T/C (dose: 25.0 mg/kg/injection, schedule: Q01DX001 (ip), vehicle: Klucel (hydroxypropylcellulose) (HPC)): 93 % of control | T/C (dose: 50.0 mg/kg/injection, schedule: Q01DX001 (ip), vehicle: Klucel (hydroxypropylcellulose) (HPC)): 89 % of control

CSc1nnc([N+](=O)[O-])s1
T/C (dose: 6.25 mg/kg/injection, schedule: Q01DX009 (ip), vehicle: Klucel (hydroxypropylcellulose) (HPC)): 94 % of control | T/C (dose: 12.5 mg/kg/injection, schedule: Q01DX009 (ip), vehicle: Klucel (hydroxypropylcellulose) (HPC)): 90 % of control

CC(=O)OCC1=C(C(=O)O)N2C(=O)C(NC(=O)CSc3ccncc3)C2SC1 (stereo not drawn)
T/C (dose: 100.0 mg/kg/injection, schedule: Q04DX002 (ip), vehicle: saline): 103 % of control | T/C (dose: 200.0 mg/kg/injection, schedule: Q04DX002 (ip), vehicle: saline): 114 % of control | T/C (dose: 400.0 mg/kg/injection, schedule: Q04DX002 (ip), vehicle: saline): 107 % of control

CCN(CC)CCCOC(=O)C(c1ccccc1)C1CCCCC1 (stereo not drawn)
T/C (dose: 6.25 mg/kg/injection, schedule: Q01DX009 (ip), vehicle: saline): 97 % of control | T/C [13]: 100 % of control | T/C [9]: 94 % of control | T/C [14]: 102 % of control | T/C [10]: 94 % of control | T/C [11]: 102 % of control

Cc1ccc(C(=O)CCCN2CCOCC2)c(C)c1
T/C [15]: 105 % of control | T/C [16]: 97 % of control | T/C [17]: 94 % of control | T/C (dose: 40.0 mg/kg/injection, schedule: Q01DX001 (ip), vehicle: saline): 108 % of control | T/C (dose: 80.0 mg/kg/injection, schedule: Q01DX001 (ip), vehicle: saline): 100 % of control | T/C [18]: 95 % of control

CCSC(SCC)C(SCC)C(O)C(O)C(O)CO (stereo not drawn)
T/C (dose: 100.0 mg/kg/injection, schedule: Q01DX001 (ip), vehicle: carboxymethylcellulose (CMC)): 106 % of control | T/C (dose: 200.0 mg/kg/injection, schedule: Q01DX001 (ip), vehicle: carboxymethylcellulose (CMC)): 112 % of control | T/C (dose: 400.0 mg/kg/injection, schedule: Q01DX001 (ip), vehicle: carboxymethylcellulose (CMC)): 114 % of control
